# According to paper PMC2804908 (Journal of medicinal chemistry, 2010):
# “And” between values parts separate entries of the source, which are not always exact repeats. Identical values can stand only once. Like-named read-outs stand apart in the source and are kept apart here.
# What was measured:
# hP2Y14 receptor = target: T1, hP2Y14 receptor (Homo sapiens, UniProt Q15391); experiment: P2Y14 receptor-inhibited accumulation of cAMP; type: cell-based; conditions: for agonist activity at the P2Y14 receptor (in words): HEK-293 cells expressing hP2Y14; for fold selectivity for P2Y14 in comparison to P2Y6: ratio of EC50 at hP2Y6 to EC50 at hP2Y14; for fold more potent than UDP 3 at the P2Y14 receptor / fold less potent than UDP 3 at the P2Y14 receptor: relative to compound 3; for EC50: read-out: EC50, hP2Y14, inhibition of cAMP formation, HEK-293 cells stably transfected with hP2Y14, mean ± standard error, N = 3, NE = no effect at 10 μM
# T1 sequence (Q15391 1-338): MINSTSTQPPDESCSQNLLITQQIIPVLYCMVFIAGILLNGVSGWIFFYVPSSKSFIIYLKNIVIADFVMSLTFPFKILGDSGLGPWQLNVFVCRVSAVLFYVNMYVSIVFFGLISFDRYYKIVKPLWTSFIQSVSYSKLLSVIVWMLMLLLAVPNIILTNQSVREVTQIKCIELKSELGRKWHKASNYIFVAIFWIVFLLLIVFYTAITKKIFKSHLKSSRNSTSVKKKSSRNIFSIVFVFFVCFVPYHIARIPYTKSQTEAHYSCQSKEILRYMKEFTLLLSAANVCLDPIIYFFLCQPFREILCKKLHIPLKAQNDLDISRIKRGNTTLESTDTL
# hP2Y6 receptor [1] = target: T2, hP2Y6 receptor (Homo sapiens, UniProt Q15077); experiment: P2Y6 receptor-stimulated PLC activity; type: cell-based; conditions: for agonist activity at the P2Y6 receptor (in words): at the concentrations tested
# T2 sequence (Q15077 whole entry): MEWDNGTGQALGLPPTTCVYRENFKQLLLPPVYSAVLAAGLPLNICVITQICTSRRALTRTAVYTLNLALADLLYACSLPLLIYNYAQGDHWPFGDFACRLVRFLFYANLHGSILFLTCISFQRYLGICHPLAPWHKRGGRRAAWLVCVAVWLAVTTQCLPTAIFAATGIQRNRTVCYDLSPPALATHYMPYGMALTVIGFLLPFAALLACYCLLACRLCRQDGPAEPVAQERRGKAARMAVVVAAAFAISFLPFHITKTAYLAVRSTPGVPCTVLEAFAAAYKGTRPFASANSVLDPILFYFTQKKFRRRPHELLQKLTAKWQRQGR
# hP2Y6 receptor [2] = target: T2, hP2Y6 receptor; conditions: read-out: EC50, hP2Y6; stimulation of PLC, hP2Y6 in 1321N1 cells; footnote b; NE = no effect at 10 μM; ref Maruoka et al. 15, Besada et al. 17, Ko et al. 18; cited from earlier work
smiles,measurement,setting,value
"O=c1ccn([C@@H]2O[C@H](COP(=O)(O)OP(=O)(O)O)[C@@H](O)[C@H]2O)c(=O)[nH]1 [Compound 3, uridine-5′-diphosphate, reference compound]",agonist activity at the P2Y14 receptor (in words),hP2Y14 receptor,moderately potent agonists
same,agonist activity at the P2Y14 receptor (in words),hP2Y14 receptor; listed as UDP,full agonist
"O=c1ccn([C@@H]2O[C@H](COP(=O)(O)OP(=O)(O)O)[C@@H](O)[C@H]2O)c(=S)[nH]1 [Compound 4, 2-thio-UDP]",fold selectivity for P2Y14 in comparison to P2Y6,hP2Y14 receptor,233 fold
same,fold more potent than UDP 3 at the P2Y14 receptor,hP2Y14 receptor,83 fold
"O=c1[nH]c(=S)ccn1[C@@H]1O[C@H](COP(=O)(O)OP(=O)(O)O)[C@@H](O)[C@H]1O [Compound 5, 4-thio-UDP]",agonist activity at the P2Y14 receptor (in words),hP2Y14 receptor,moderately potent agonists
"CO/N=c1\ccn([C@@H]2O[C@H](COP(=O)(O)OP(=O)(O)O)[C@@H](O)[C@H]2O)c(=O)[nH]1.Cl [Compound 7, N^4-OCH3-CDP]",fold less potent than UDP 3 at the P2Y14 receptor,hP2Y14 receptor,20 fold
"O=c1ccn([C@H]2[C@H](O)[C@H](O)[C@@]3(COP(=O)(O)OP(=O)(O)O)C[C@H]23)c(=O)[nH]1 [Compound 8, (N)-methanocarba UDP]",EC50,hP2Y14 receptor,> 10 µM
same,EC50,"hP2Y6 receptor [1]; read-out: EC50, hP2Y6, stimulation of PLC, hP2Y6 stably expressed in 1321N1 cells, mean ± standard error, N = 3, >10,000 = <50% effect at 10 μM, NE = no effect at 10 μM",> 10 µM
"O=c1ccn([C@@]23C[C@H]2[C@H](COP(=O)(O)OP(=O)(O)O)[C@@H](O)[C@H]3O)c(=O)[nH]1 [Compound 9, (S)-methanocarba UDP]",EC50,hP2Y14 receptor,> 10 µM
"O=c1ccn([C@@H]2O[C@H](COP(=O)(O)C(F)(F)P(=O)(O)O)[C@@H](O)[C@H]2O)c(=O)[nH]1 [Compound 12, α,β-difluoromethylene UDP]",agonist activity at the P2Y6 receptor (in words),hP2Y6 receptor [1],did not activate
same,EC50,hP2Y6 receptor [2],> 10 µM
"O=c1[nH]c(=O)n([C@@H]2O[C@H](COP(=O)(O)C(F)(F)P(=O)(O)O)[C@@H](O)[C@H]2O)cc1I [Compound 13, 5-I-Up-CF2-p]",fold selectivity for P2Y14 in comparison to P2Y6,hP2Y14 receptor,not selective
"COP(=O)(O)OP(=O)(O)OC[C@H]1O[C@@H](n2ccc(=O)[nH]c2=O)[C@H](O)[C@@H]1O.N [Compound 14, Diphosphoric acid 1-β-methyl ester 2-(uridine-5′-yl)ester]",agonist activity at the P2Y14 receptor (in words),hP2Y14 receptor,weakly activated
same,agonist activity at the P2Y6 receptor (in words),hP2Y6 receptor [1],inactive
"COP(=O)(O)OP(=O)(O)OC[C@H]1O[C@@H](n2ccc(=O)[nH]c2=S)[C@H](O)[C@@H]1O.N [Compound 15, Diphosphoric acid 1-β-methyl ester 2-(2-thiouridine-5′-yl)ester]",fold selectivity for P2Y14 in comparison to P2Y6,hP2Y14 receptor,> 180 fold
"COP(=O)(O)OP(=O)(O)OC[C@H]1O[C@@H](n2ccc(=S)[nH]c2=O)[C@H](O)[C@@H]1O [Compound 16, Diphosphoric acid 1-β-methyl ester 2-(4-thiouridine-5′-yl)ester]",EC50,hP2Y14 receptor,> 10 µM
"CCOP(=O)(O)OP(=O)(O)OC[C@H]1O[C@@H](n2ccc(=O)[nH]c2=S)[C@H](O)[C@@H]1O.N [Compound 17, Diphosphoric acid 1-β-ethyl ester 2-(2-thiouridine-5′-yl)ester]",fold selectivity for P2Y14 in comparison to P2Y6,hP2Y14 receptor,> 200 fold and > 250 fold
"CCCOP(=O)(O)OP(=O)(O)OC[C@H]1O[C@@H](n2ccc(=O)[nH]c2=S)[C@H](O)[C@@H]1O.N [Compound 18, Diphosphoric acid 1-β-propyl ester 2-(2-thiouridine-5′-yl)ester]",fold selectivity for P2Y14 in comparison to P2Y6,hP2Y14 receptor,> 200 fold
"N.N#CCCOP(=O)(O)OP(=O)(O)OC[C@H]1O[C@@H](n2ccc(=O)[nH]c2=O)[C@H](O)[C@@H]1O [Compound 19, Diphosphoric acid 1-β-(2-cyanoethyl)ester 2-(uridine-5′-yl)ester]",agonist activity at the P2Y14 receptor (in words),hP2Y14 receptor,poorly tolerated
"C#CCCOP(=O)(O)OP(=O)(O)OC[C@H]1O[C@@H](n2ccc(=O)[nH]c2=O)[C@H](O)[C@@H]1O.CCN(CC)CC [Compound 20, Diphosphoric acid 1-β-(3-butynyl)ester 2-(uridine-5′-yl)ester]",fold less potent than UDP 3 at the P2Y14 receptor,hP2Y14 receptor,2 fold
"C#CCCOP(=O)(O)OP(=O)(O)OC[C@H]1O[C@@H](n2ccc(=O)[nH]c2=S)[C@H](O)[C@@H]1O.CCN(CC)CC [Compound 21, Diphosphoric acid 1-β-(3-butynyl) ester 2-(2-thiouridine-5′-yl)ester]",fold selectivity for P2Y14 in comparison to P2Y6,hP2Y14 receptor,> 900 fold
same,fold more potent than UDP 3 at the P2Y14 receptor,hP2Y14 receptor,16 fold
"N.O=c1ccn([C@@H]2O[C@H](COP(=O)(O)OP(=O)(O)OCC(O)CO)[C@@H](O)[C@H]2O)c(=O)[nH]1 (stereo partly drawn) [Compound 22, Diphosphoric acid 1-α-glycerol ester 2-(uridine-5′-yl)ester]",fold less potent than UDP 3 at the P2Y14 receptor,hP2Y14 receptor,10 fold
"CC(C)(C)OP(=O)(O)OP(=O)(O)OC[C@H]1O[C@@H](n2ccc(=O)[nH]c2=O)[C@H](O)[C@@H]1O [Compound 24, Diphosphoric acid 1-β-tert-butyl ester 2-(uridine-5′-yl)ester]",EC50,hP2Y6 receptor [1],10.8 µM
"CC(C)(C)OP(=O)(O)OP(=O)(O)OC[C@H]1O[C@@H](n2ccc(=O)[nH]c2=S)[C@H](O)[C@@H]1O.N [Compound 25, Diphosphoric acid 1-β-tert-butyl ester 2-(2-thiouridine-5′-yl)ester]",fold more potent than UDPG at the P2Y14 receptor,hP2Y14 receptor; relative to UDPG 1,11 fold
same,fold more potent than the corresponding 2-oxo analogue 24 at the P2Y14 receptor,hP2Y14 receptor; relative to compound 24,8 fold
